Values of other authors, collected in article PMC12332767 (RSC Chemical Biology, 2025).

heparin [HI]
Insoluble in chloroform (HI alone): 98.5%
Soluble in chloroform in interaction with PC (HI in interaction with PC): 74%
